Laboratory results as given in publication PMC10714399, “Open Source Antibiotics: Simple Diarylimidazoles Are Potent against Methicillin-Resistant Staphylococcus aureus” (ACS Infectious Diseases, 2023).
Values after ≈ are worked out from the molar mass of the structure shown. Read-outs that look alike come from different tables or passages of the source.

How the values were obtained:
[1] = tested on: Staphylococcus aureus NCTC 13373 (mecA-positive; methicillin-resistant); assay: In vitro antibacterial activity, MIC (UCL School of Pharmacy assay), MRSA; format: cell-based; settings: for MIC: Staphylococcus aureus
Experimental: (§1) Staphylococcus aureus NCTC 13373 (mecA-positive; methicillin-resistant, NCTC 13373) was supplied by the National Collection of Type Cultures (NCTC), Public Health England, United Kingdom. Other organisms, S. aureus ATCC 25923 (methicillin-susceptible) and Enterococcus faecalis ATCC 51299 (vanA-positive; vancomycin-resistant), were obtained from the American Type Culture Collection (ATCC) via LGC Standards, UK. A suspension of each organism was prepared from an overnight plate culture (tryptone soya agar) in phosphate-buffered saline (PBS) and adjusted to an absorbance reading at 600 nm of 0.1, which is approximately equivalent to 1 × 10^8 colony-forming units (CFU) per mL. The cultures were further diluted 1:100 in isosensitest broth (Oxoid, United Kingdom) before 100 μL was used to inoculate each well of a 96-well plate that contained diluted samples of the OSA series. Compounds were evaluated over a 2-fold dilution range from 32 to 0.03 μg/mL. Stocks of the samples were prepared in 100% DMSO at […] before being diluted in isosenstitest broth. The highest concentration of DMSO present was 2%, which has been previously shown not to inhibit the growth of the microorganisms (data not shown). […] Vancomycin was used as a quality control compound.

[2] = tested on: Enterococcus faecalis ATCC 51299 (vanA-positive; vancomycin-resistant); assay: In vitro antibacterial activity, MIC (UCL), VRE; format: cell-based
Experimental: as §1

[3] = tested on: S. aureus ATCC 25923 (methicillin-susceptible); assay: In vitro antibacterial activity, MIC (UCL), MSSA; format: cell-based, Staphylococcus aureus; settings: for MIC: Staphylococcus aureus
Experimental: as §1

Structure (SMILES)	MIC ([1]; UCL, read-out: MRSA MIC (UCL)) [µg/mL]	MIC ([2]; read-out: VRE MIC (UCL)) [µg/mL]	MRSA MIC [1] [µg/mL]	MIC ([1]; read-out: MRSA MIC) [µg/mL]	further results
COc1ccc(-c2nc3ccc(C)cn3c2NCc2ccco2)cc1OC [OSA_000849]	> 32	> 32			
COc1ccn2c(NCc3cn(C)cn3)c(-c3ccccn3)nc2c1.O=CO [compound 853]			> 32		VRE MIC [2]: > 32 µg/mL
Cc1ccn2c(Nc3ccc(F)cc3)c(-c3ccc(N(C)C)cc3)nc2c1 [compound 846]			> 32		VRE MIC [2]: > 32 µg/mL
CN(C)Cc1ccc2nc(-c3ccccn3)c(Nc3cccc(F)c3)n2c1 [compound 844]			> 32		VRE MIC [2]: > 32 µg/mL
N#Cc1cccc(-c2c(-c3ccccn3)nc3n2CCC3)c1 [compound 864]				> 32	MIC ([2]; read-out: VRE MIC): > 32 µg/mL
Cn1ccnc1-c1nc2ccccn2c1Nc1ccc(F)cc1 [compound 847]				> 32	MIC ([2]; read-out: VRE MIC): > 32 µg/mL
c1ncc(-c2nc3n(c2-c2ccc4occc4c2)CCC3)cn1 [OSA_000874]	> 32	> 32			
Cc1ccccc1-c1c(-c2ccccn2)nc2n1CCC2 [compound 977]				32 (≈ 116 µM)	MIC ([2]; read-out: VRE MIC): 32 µg/mL (≈ 116 µM)
Cn1ccnc1-c1nc2ccccn2c1Nc1ccc(F)cc1 [OSA_000847]	> 32	> 32			
COc1ccn2c(Nc3ccnc(C)c3)c(-c3ccccn3)nc2c1 [compound 854]			> 32		VRE MIC [2]: > 32 µg/mL
COc1ccn2c(Nc3ccc4c(c3)OCCO4)c(-c3c[nH]cn3)nc2c1 [OSA_000866]	> 32	> 32			
Cc1ccn2c(Nc3ccc(F)cc3)c(-c3ccc(N(C)C)cc3)nc2c1 [OSA_000846]	> 32	> 32			
c1ccn2c(NC3CCCC3)c(-c3nccs3)nc2c1 [OSA_000845]	> 32	> 32			
COCc1ccc2nc(-c3ccccn3)c(Nc3cccc(F)c3)n2c1 [compound 852]			> 32		VRE MIC [2]: > 32 µg/mL
COc1ccn2c(Nc3cccc(F)c3)c(-c3cscn3)nc2c1 [OSA_000843]	> 32	> 32			
c1ccc(-c2nc3ccccn3c2N2CCOCC2)nc1 [OSA_000850]	> 32	> 32			

Structure (SMILES)	MIC ([1]; UCL, read-out: MRSA MIC (UCL)) [µg/mL]	MIC ([2]; read-out: VRE MIC (UCL)) [µg/mL]	MRSA MIC [1] [µg/mL]	MIC ([1]; read-out: MRSA MIC) [µg/mL]	further results
COc1ccn2c(Nc3ccc4c(c3)OCCO4)c(-c3c[nH]cn3)nc2c1 [compound 866]			> 32		VRE MIC [2]: > 32 µg/mL
c1ncc(-c2nc3n(c2-c2ccc4occc4c2)CCC3)cn1 [compound 874]				> 32	activity against MRSA, in words [1]: inactive; MIC ([2]; read-out: VRE MIC): > 32 µg/mL
COc1ccn2c(NCc3cn(C)cn3)c(-c3ccccn3)nc2c1 [OSA_000853]	> 32	> 32			
COc1ccn2c(Nc3cccc(F)c3)c(-c3cn(C)cn3)nc2c1 [compound 848]			> 32		VRE MIC [2]: > 32 µg/mL
COc1ccc2nc(-c3c[nH]cn3)c(Nc3ccc4c(c3)OCCO4)n2c1 [OSA_000867]	> 32	> 32			
Clc1ccc(-c2c(-c3ccccn3)nc3n2CCC3)cc1Cl [compound 876]				8 (≈ 24.2 µM)	MIC ([2]; read-out: VRE MIC): 8 µg/mL (≈ 24.2 µM)
COc1ccc(-c2nc3ccc(C)cn3c2NCc2ccco2)cc1OC.Cl [compound 849]			> 32		VRE MIC [2]: > 32 µg/mL
FC(F)(F)Oc1ccc(-c2c(-c3ccccn3)nc3n2CCC3)cc1 [compound 868]				8 (≈ 23.2 µM)	MIC ([2]; read-out: VRE MIC): 32 µg/mL (≈ 92.7 µM)
CN1CCN(c2ccc(-c3c(-c4ccccn4)nc4ccccn34)cc2)CC1 [compound 1012]				> 32	MIC ([3]; read-out: MSSA MIC): > 32 µg/mL
COc1ccc(-c2c(-c3ccccn3)nc3n2CCC3)cc1OC [compound 820]			32	> 32	MIC ([1]; 16 h, read-out: MRSA MIC): > 32 µg/mL; MIC ([3]; read-out: MSSA MIC): > 32 µg/mL
N#Cc1ccc(-c2c(-c3ccccn3)nc3ccccn23)cc1 [OSA_001104]					MIC ([1]; UCL assay, read-out: MRSA MIC (ug/mL) (UCL)): > 32 µg/mL; MIC ([3]; UCL assay, read-out: MSSA MIC (ug/mL) (UCL)): > 32 µg/mL
COc1ccn2c(Nc3ccc(F)cn3)c(-c3ccccn3)nc2c1.O=CO [compound 839]			16		VRE MIC [2]: > 32 µg/mL
N#Cc1ccc(-c2c(-c3ccccn3)nc3cnccn23)cc1 [compound 1106]			> 32		MSSA MIC [3]: > 32 µg/mL
CN(c1ccc(F)cc1)c1c(-c2ccccn2)nc2ccc(Br)cn12 [compound 1003]				16 (≈ 40.3 µM)	MIC ([3]; read-out: MSSA MIC): 16 µg/mL (≈ 40.3 µM)
Cc1cccc(-c2c(-c3ccccn3)nc3n2CCC3)c1 [compound 976]				8 (≈ 29.1 µM)	MIC ([2]; read-out: VRE MIC): 32 µg/mL (≈ 116 µM)
